Results on six compounds are retold here after patent publication US8389545B2, “Quinolone M1 receptor positive allosteric modulators” (Merck, Sharp & Dohme, Corp., priority 2005, dated 2013).

Structures are written as SMILES.

This assay concerns the target T1, acetylcholine muscarinic M1 receptor (Homo sapiens, UniProt P11229).
T1 construct: expressed in transfected cells; host or cells: CHOnfat cells (CHO; Geneticin selection)
T1 sequence (P11229 1-460): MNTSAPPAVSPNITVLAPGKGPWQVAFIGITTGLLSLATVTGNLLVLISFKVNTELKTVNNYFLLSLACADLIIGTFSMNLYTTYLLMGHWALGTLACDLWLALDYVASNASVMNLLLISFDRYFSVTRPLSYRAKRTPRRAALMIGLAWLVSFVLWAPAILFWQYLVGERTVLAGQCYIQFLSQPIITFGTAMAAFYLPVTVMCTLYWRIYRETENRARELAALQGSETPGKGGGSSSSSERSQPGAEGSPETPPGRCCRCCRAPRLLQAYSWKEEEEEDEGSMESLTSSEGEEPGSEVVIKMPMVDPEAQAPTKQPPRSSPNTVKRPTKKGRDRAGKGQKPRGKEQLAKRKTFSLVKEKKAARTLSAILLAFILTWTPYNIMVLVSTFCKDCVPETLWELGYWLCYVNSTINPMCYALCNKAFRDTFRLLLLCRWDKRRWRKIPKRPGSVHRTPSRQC
The assay can be described thus: muscarinic FLIPR assay: intracellular calcium in CHOnfat/hM1 cells with EC20 acetylcholine. It counts as cell-based. The following applies: FLIPR Ca2+, 4 min preincubation then EC20 acetylcholine (3 nM final). The method, then: The assay studies the effect of one or several concentrations of test compounds on basal or acetylcholine-stimulated Ca^2+ levels using FLIPR.
Compounds are prepared and subjected to a preincubation period of 4 min. Thereafter, a single EC20 concentration of acetylcholine is added to each well (3 nM final). The intracellular Ca^2+ level of each sample is measured and compared to an acetylcholine control to determine any modulatory activity.
Cells: CHOnfat/hM1, hM2, hM3 or hM4 cells are plated 24 hr before the assay at a density of 18,000 cells/well (100 μL) in a 384 well plate. CHOnfat/hM1 and CHOnfat/hM3 Growth Medium: 90% DMEM (Hi Glucose); 10% HI FBS; 2 mM L-glutamine; 0.1 mM NEAA; Pen-Strep; and 1 mg/ml Geneticin, are added. For M2Gqi5CHOnfat and M4Gqi5CHOnfat cells, an additional 600 ug/ml hygromycin is added.
Equipment: 384 well plate, 120 μL addition plate; 96-well Whatman 2 ml Uniplate Incubator, 37° C., 5% CO2; Skatron EMBLA-384 Plate Washer; Multimek Pipetting System; Genesis Freedom 200 System; Mosquito System; Temo Nanolitre Pipetting System; and FLIPR^384 Fluorometric Imaging Plate Reader System are used.
Buffers. Assay Buffer: Hanks Balanced Salt Solution, with 20 mM Hepes, 2.5 mM Probenecid (Sigma P-8761) first dissolved in 1N NaOH, 1% Bovine Serum Albumin (Sigma A-9647). Dye Loading Buffer: Assay Buffer plus 1% Fetal Bovine Serum and Fluo-4AM/Pluronic Acid Mixture. 2 mM Fluo-4AM ester stock in DMSO (Molecular Probes F-14202) Concentration of 2 uM in buffer for a final concentration of 1 μM in Assay. 20% Pluronic Acid Solution stock, with concentration of 0.04% in Buffer, 0.02% in Assay.
65 μL of 2 mM Fluo-4AM are mixed with 130 μL of 20% Pluronic Acid. The resulting solution and 650 μL FBS is added to the assay buffer for a total volume of 65 mL. Positive Controls: 4-Br-A23187: 10 mM in DMSO; final concentration 10 μM. Acetylcholine: 10 mM in water, working stock at both 20 uM and 30 uM in assay buffer, final concentration of 10 μM. This is used to check the maximum stimulation of the CHOK1/hM1 cells. 20 uM (2×) acetylcholine is added in the preincubation part of the assay, and the 30 uM (3×) stock is added in the second part. (EC20) Acetylcholine: 10 mM in water, working stock of 9 nM (3×), and final concentration in assay is 3 nM. This is used after the preincubation with test compounds. Addition of the EC20 Acetylcholine to each well with a test compound will ascertain any modulator activity. 24 wells contain 3 nM Acetylcholine alone as a control.
Determining Activity of Putative Compounds: Screening Plate: Compounds are titrated in 96-well plates (columns 2-11), 100% DMSO, started at a concentration of 15 mM (150× stock concentration), and 3-fold serial dilutions using Genesis Freedom200 System. Four 96-well plates are combined into a 384-well plate using Mosquito Nanolitre Pipetting System by transferring 1 ul of serial diluted compounds to each well, and 1 mM acetylcholine (100× stock concentration) were added as a control. Using Temo, 49 μl assay buffer is added to each well of the 384-well plate right before assay.
In a 96-well Whatman 2 ml Uniplate, 9 nM Acetylcholine (3×) is pipetted into wells corresponding to the screening compounds, and into control wells. The 30 uM acetylcholine control (3×) is added into control wells, and the 3× agonist plate is transferred into a 384 well plate. Cells are washed three times with 100 μL of buffer, leaving […] of buffer in each well. Using Multimek, 30 μL of Dye Loading Buffer is added into each well and incubated at 37° C., 5% CO2 for up to one hr.
After 60 min, the cells are washed three times with 100 μL of buffer, leaving 30 μL of buffer in each well. The cell plate, screening plate, and agonist addition plates are placed on the platform in the FLIPR and the door closed. A signal test to check background fluorescence and basal fluorescence signal is performed. Laser intensity is adjusted if necessary. […]
`COc1cccc(Cn2cc(C(=O)O)c(=O)c3c(F)ccc(F)c32)c1` [Example 2, 5,8-difluoro-1-(3-methoxybenzyl)-4-oxo-1,4-dihydroquinoline-3-carboxylic acid]: the EC50 stood at 4200 nM. The value for `O=C(O)c1cn(Cc2c(F)cccc2F)c2c(F)ccc(F)c2c1=O` [Example 4, 1-(2,6-difluorobenzyl)-5,8-difluoro-4-oxo-1,4-dihydroquinoline-3-carboxylic acid] was 614 nM. The value for `COc1ccc(Cn2cc(C(=O)O)c(=O)c3cccc(F)c32)cc1` [Example 5, 8-fluoro-1-(4-methoxybenzyl)-4-oxo-1,4-dihydroquinoline-3-carboxylic acid] was 1150 nM; that for `COc1ccc(Cn2cc(C(=O)O)c(=O)c3cccc(F)c32)cc1C(F)(F)F` [Example 44, 8-fluoro-1-[4-methoxy-3-(trifluoromethyl)benzyl]-4-oxo-1,4-dihydroquinoline-3-carboxylic acid] was 793 nM; that for `O=C(O)c1cn(Cc2ccc(C(F)(F)F)cc2)c2c(F)cccc2c1=O` [Example 52, 8-fluoro-4-oxo-1-[4-(trifluoromethyl)benzyl]-1,4-dihydroquinoline-3-carboxylic acid] was 975 nM. Take `O=C(O)c1cn(Cc2ccc(O)cc2)c2ccccc2c1=O` [Example 71, 1-(4-hydroxybenzyl)-4-oxo-1,4-dihydroquinoline-3-carboxylic acid]: the EC50 worked out at 389 nM.
